We go through two substances from US9096650B2, “Cyclic oligopeptides for binding to a target ligand” (LEXCICON LIMITED, priority 2006, dated 2015).

Test [1] deals with TNF secretion. The conditions noted are these: in words; literature reference; cited from earlier work.
The subject of test [2] is TNF. The test is described as follows: Suppression of TNF secretion stimulated by LPS in rats (Example 5). It is filed as in vivo. How it is done:
• 1. A cyclic octapeptide with the structure cyclo(-DF-S-Σ-R-DF-S-ΣR-), where Σ represents the associating amino acid as an L-alpha aminocarboxylic acid and the associating functional group borne on the associating amino acid as a side-chain residue consisting of a straight aliphatic chain containing ten carbon atoms, was prepared as a solution in transcutol and hydroxypropyl beta-cyclodextrin as described in example 4, where the concentration of peptide was 1 mg/ml, and the final concentration of cyclodextrin was 40 mg/ml. • 2. Rats weighing 250 g were injected i.p. with 1 ml of peptide solution (1 mg peptide per rat). A second group of rats received 1 ml of the transcutol/cyclodextrin vehicle containing no peptide. One hour later, the rats were further injected with 1 mg of lipopolysaccharide (from Salmonella abortus equi). • 3. 150 minutes later, blood samples were taken, and TNF levels measured in the two groups by ELISA.

Test [3] has as its system J774-1 cells (a macrophage cell line). The test is described as follows: Suppression of TNF secretion stimulated by LPS in a macrophage cell line, varying epitope order and stereochemistry of associating amino acids (Example 3). It is filed as cell-based. The conditions noted are these: peptide 50 ug/ml; LPS 1.25 ug/ml; LPS alone 1861.9. How it is done: • 1. Cyclic octapeptides were prepared with the following structures: cyclo(-DF-S-ΣL-R-DF-S-ΣL-R-) cyclo(-DF-S-ΣL-R-DF-S-ΣD-R-) cyclo(-DF-S-ΣD-R-DF-S-ΣD-R-) cyclo(-DF-R-ΣL-S-DF-R-ΣL-S-) cyclo(-DF-R-ΣL-S-DF-R-ΣD-S-) cyclo(-DF-R-ΣD-S-DF-R-ΣD-S-) wherein F, S and R are the epitope-forming amino acids, ΣL represents an associating amino acid which is an L-alpha aminocarboxylic acid in which the associating functional group is a side-chain residue consisting of an unbranched —C10H21; ΣD represents an associating amino acid which is a D-alpha aminocarboxylic acid in which the associating functional group is a side-chain residue consisting an unbranched —C10H21. These cyclic oligopeptides were prepared as solutions in distilled water at a concentration of 1 mg/ml. • 2. J774-1 cells (a macrophage cell line) were plated out in all the wells of a 24-well cluster plates at a seeding density of 3×10^5 cells/ml/well (1 ml RPMI 1640 culture medium per well), and incubated overnight at 37° C. in 5% CO2/air. • 3. The following day, the solutions from step 1 were administered to eighteen wells containing cells in step 2, to give three wells each with a final concentration of 50 ug/ml. The remaining wells were left untreated. The plate was incubated for a further four hours at 37 degC. • 4. Lipopolysaccharide (from E. coli strain 0111 B4) was added to the wells receiving the octapeptide solutions, as well as three of the wells receiving no peptide. The concentration of lipopolysaccharide was 1.25 ug/ml. • 5. The plate was incubated overnight, and the following day the supernatants were assayed for TNF using a commercial ELISA kit.

Test [4] has as its system J774A.1 cells (a macrophage cell line). Put plainly: Dose response: suppression of TNF secretion stimulated by lipopolysaccharide (LPS) in a macrophage cell line (Example 1). The test is classed as cell-based. The conditions noted are these: LPS 0.625 ug/ml. How it is done: • 1. A cyclic octapeptide with the structure: cyclo(-DF-S-Σ-R-DF-S-Σ-R-) • was synthesised using standard methods based on the Merrifield resin-based technique, followed by solution-phase cyclisation. The purified peptide was prepared as a solution in distilled water at a concentration of 1 mg/ml. • R, F and S represent the epitope-forming amino acids and Σ represents the associating functional group borne on the associating amino acid wherein the associating amino acid is an L-alpha aminocarboxylic acid and the associating functional group is a side-chain residue consisting of a straight aliphatic chain containing ten carbon atoms. • All amino acids are in the L form unless indicated otherwise. • All amino acids are linked by peptide bonds. • 2. J774A.1 cells (a macrophage cell line) were plated out in all the wells of a 24-well cluster plates at a seeding density of 5×10^5 cells/ml/well (1 ml RPMI 1640 culture medium per well), and incubated overnight at 37° C. in 5% CO2/air. • 3. The following day, the solution from step 1 was administered to fifteen wells containing cells in step 2, to give three wells each with a final concentration of 50, 25, 12.5, 6.25 or 3.125 ug/ml. The remaining wells were left untreated. The plate was incubated for a further four hours at 37 degC. • 4. Lipopolysaccharide (from E. coli strain 0111 B4) was added to the wells receiving the octapeptide solution, as well as three of the wells receiving no peptide. The final concentration of lipopolysaccharide was 0.625 ug/ml. • 5. The plate was incubated overnight, and the following day the supernatants were assayed for TNF using a commercial ELISA kit.

Test [5] shares this test system. The test is described as follows: Suppression of LPS-stimulated TNF secretion by peptide formulated with hydroxypropyl beta-cyclodextrin (Example 4). The test is classed as cell-based. The protocol:
• 1. A cyclic octapeptide with the structure cyclo(-DF-S-Σ-R-DF-S-Σ-R-) was prepared as a solution in transcutol at a concentration of 5 mg/ml, where Σ represents the associating amino acid as an L-alpha aminocarboxylic acid and the associating functional group borne on the associating amino acid as a side-chain residue consisting of a straight aliphatic chain containing ten carbon atoms. • 2. Six separate aliquots of 200 ul of the solution in step 1 were transferred to fresh 8 ml vials and mixed with slow vortexing with 800 ul of a solution of hydroxy-propyl beta cyclodextrin at a concentration 50, 25, 12.5, 6.25, 3.125 or 1.5625 mg/ml in distilled water • 2. J774A.1 cells (a macrophage cell line) were plated out in all the wells of a 24-well cluster plates at a seeding density of 5×10^5 cells/ml/well (1 ml RPMI 1640 culture medium per well), and incubated overnight at 37° C. in 5% CO2/air. • 3. The following day, each of the solutions from step 1 were administered in appropriate volumes to wells containing cells in step 2, to give three wells each with a final concentration of 8, 4, or 2 ug/ml. The remaining wells were left untreated. The plate was incubated for a further four hours at 37 degC. • 4. Lipopolysaccharide (from E. coli strain 0111 B4) was added to the wells receiving the octapeptide solution, as well as three of the wells receiving no peptide. The final concentration of lipopolysaccharide was 0.625 ug/ml. • 5. The plate was incubated overnight, and the following day the supernatants were assayed for TNF using a commercial ELISA kit.

On to Glatiramer acetate [Copaxone], for which the “TNF secretion in vitro” value in test [1] is “down-regulate TNF secretion in vitro”.

Turning to cyclo(-DF-S-Σ-R-DF-S-Σ-R-), the “TNF (blood)” value in test [2] (1 mg peptide i.p. in transcutol/cyclodextrin, 1 mg LPS one hour later, blood 150 minutes later, vehicle 10717) turned out to be 2370 pg/mL. Besides, the “reduction of TNF production versus vehicle” value in test [2] (1 mg peptide i.p., LPS stimulus) was “greater than 75%”. Moreover, in test [3], the “Concentration of TNF” value was 865.4 pg/mL. In addition, the TNF concentration in test [4] (peptide 3.125 ug/ml, LPS alone 1780.09) came out at 1494.53 pg/mL; in test [4] (peptide 6.25 ug/ml), 1346.20 pg/mL; in test [4] (peptide 12.5 ug/ml), 1037.31 pg/mL; in test [4] (peptide 25.0 ug/ml), 621.75 pg/mL; in test [4] (peptide 50.0 ug/ml), 613.70 pg/mL; in test [5] (peptide 2 ug/ml, cyclodextrin:peptide 1.25 by weight) it was 2161.8 pg/mL. Moreover, the TNF concentration in test [5] (peptide 2 ug/ml, cyclodextrin:peptide 2.5 by weight) came out at 2314.2 pg/mL; in test [5] (peptide 2 ug/ml, cyclodextrin:peptide 5 by weight), 2177.2 pg/mL; in test [5] (peptide 2 ug/ml, cyclodextrin:peptide 10 by weight) it was 2278.3 pg/mL; in test [5] (peptide 2 ug/ml, cyclodextrin:peptide 20 by weight), 2223.9 pg/mL; in test [5] (peptide 2 ug/ml, cyclodextrin:peptide 40 by weight, LPS 0.625 ug/ml, no peptide 2519.3), 2450.2 pg/mL; in test [5] (peptide 4 ug/ml, cyclodextrin:peptide 1.25 by weight) it was 1599.9 pg/mL. Moreover, the TNF concentration in test [5] (peptide 4 ug/ml, cyclodextrin:peptide 2.5 by weight) turned out to be 1538.7 pg/mL; in test [5] (peptide 4 ug/ml, cyclodextrin:peptide 5 by weight), 1477.5 pg/mL; in test [5] (peptide 4 ug/ml, cyclodextrin:peptide 10 by weight), 1474.8 pg/mL; in test [5] (peptide 4 ug/ml, cyclodextrin:peptide 20 by weight), 1488.1 pg/mL; in test [5] (peptide 4 ug/ml, cyclodextrin:peptide 40 by weight), 1646.5 pg/mL; in test [5] (peptide 8 ug/ml, cyclodextrin:peptide 1.25 by weight) it was 1130.9 pg/mL. Besides, the TNF concentration in test [5] (peptide 8 ug/ml, cyclodextrin:peptide 2.5 by weight) worked out at 1105.7 pg/mL; in test [5] (peptide 8 ug/ml, cyclodextrin:peptide 5 by weight), 1140.6 pg/mL; in test [5] (peptide 8 ug/ml, cyclodextrin:peptide 10 by weight) it was 1218.7 pg/mL; in test [5] (peptide 8 ug/ml, cyclodextrin:peptide 20 by weight), 1298.4 pg/mL; in test [5] (peptide 8 ug/ml, cyclodextrin:peptide 40 by weight) it was 1276.9 pg/mL. Also, in test [5] (in words, down to 2 ug/ml in the well, cyclodextrin from 40:1 wt:wt downwards), the “inhibition of TNF secretion” value is “significant inhibition”.
